Test results reported in patent US20090118332A1, “Therapeutic Agents - 551” (AstraZeneca AB, priority 2006, published 2009).

Molecular target: T1, human Fatty Acid Synthase (Homo sapiens, UniProt P49327)
T1 construct: made in house
Experiment: Human FAS enzyme assay (decrease in NADPH fluorescence)
Format: biochemical
Conditions: for inhibition at 100 µM: % inhibition at a concentration of 100 μmolar; for IC50, inhibition of human Fatty Acid Synthase: FAS enzyme assay, IC50 from fitted sigmoid curves
Method in brief: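 In-house human FAS was preincubated with compound and NADPH for 15 min at room temperature in 0.1 M Tris pH 7.5 with EDTA, glutathione and BSA. Malonyl CoA and acetyl CoA (500 μM and 150 μM in the added mix) were then added for 60 min. IC50 came from time-zero-subtracted NADPH fluorescence (340/460 nm).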

T1 sequence (P49327 whole entry): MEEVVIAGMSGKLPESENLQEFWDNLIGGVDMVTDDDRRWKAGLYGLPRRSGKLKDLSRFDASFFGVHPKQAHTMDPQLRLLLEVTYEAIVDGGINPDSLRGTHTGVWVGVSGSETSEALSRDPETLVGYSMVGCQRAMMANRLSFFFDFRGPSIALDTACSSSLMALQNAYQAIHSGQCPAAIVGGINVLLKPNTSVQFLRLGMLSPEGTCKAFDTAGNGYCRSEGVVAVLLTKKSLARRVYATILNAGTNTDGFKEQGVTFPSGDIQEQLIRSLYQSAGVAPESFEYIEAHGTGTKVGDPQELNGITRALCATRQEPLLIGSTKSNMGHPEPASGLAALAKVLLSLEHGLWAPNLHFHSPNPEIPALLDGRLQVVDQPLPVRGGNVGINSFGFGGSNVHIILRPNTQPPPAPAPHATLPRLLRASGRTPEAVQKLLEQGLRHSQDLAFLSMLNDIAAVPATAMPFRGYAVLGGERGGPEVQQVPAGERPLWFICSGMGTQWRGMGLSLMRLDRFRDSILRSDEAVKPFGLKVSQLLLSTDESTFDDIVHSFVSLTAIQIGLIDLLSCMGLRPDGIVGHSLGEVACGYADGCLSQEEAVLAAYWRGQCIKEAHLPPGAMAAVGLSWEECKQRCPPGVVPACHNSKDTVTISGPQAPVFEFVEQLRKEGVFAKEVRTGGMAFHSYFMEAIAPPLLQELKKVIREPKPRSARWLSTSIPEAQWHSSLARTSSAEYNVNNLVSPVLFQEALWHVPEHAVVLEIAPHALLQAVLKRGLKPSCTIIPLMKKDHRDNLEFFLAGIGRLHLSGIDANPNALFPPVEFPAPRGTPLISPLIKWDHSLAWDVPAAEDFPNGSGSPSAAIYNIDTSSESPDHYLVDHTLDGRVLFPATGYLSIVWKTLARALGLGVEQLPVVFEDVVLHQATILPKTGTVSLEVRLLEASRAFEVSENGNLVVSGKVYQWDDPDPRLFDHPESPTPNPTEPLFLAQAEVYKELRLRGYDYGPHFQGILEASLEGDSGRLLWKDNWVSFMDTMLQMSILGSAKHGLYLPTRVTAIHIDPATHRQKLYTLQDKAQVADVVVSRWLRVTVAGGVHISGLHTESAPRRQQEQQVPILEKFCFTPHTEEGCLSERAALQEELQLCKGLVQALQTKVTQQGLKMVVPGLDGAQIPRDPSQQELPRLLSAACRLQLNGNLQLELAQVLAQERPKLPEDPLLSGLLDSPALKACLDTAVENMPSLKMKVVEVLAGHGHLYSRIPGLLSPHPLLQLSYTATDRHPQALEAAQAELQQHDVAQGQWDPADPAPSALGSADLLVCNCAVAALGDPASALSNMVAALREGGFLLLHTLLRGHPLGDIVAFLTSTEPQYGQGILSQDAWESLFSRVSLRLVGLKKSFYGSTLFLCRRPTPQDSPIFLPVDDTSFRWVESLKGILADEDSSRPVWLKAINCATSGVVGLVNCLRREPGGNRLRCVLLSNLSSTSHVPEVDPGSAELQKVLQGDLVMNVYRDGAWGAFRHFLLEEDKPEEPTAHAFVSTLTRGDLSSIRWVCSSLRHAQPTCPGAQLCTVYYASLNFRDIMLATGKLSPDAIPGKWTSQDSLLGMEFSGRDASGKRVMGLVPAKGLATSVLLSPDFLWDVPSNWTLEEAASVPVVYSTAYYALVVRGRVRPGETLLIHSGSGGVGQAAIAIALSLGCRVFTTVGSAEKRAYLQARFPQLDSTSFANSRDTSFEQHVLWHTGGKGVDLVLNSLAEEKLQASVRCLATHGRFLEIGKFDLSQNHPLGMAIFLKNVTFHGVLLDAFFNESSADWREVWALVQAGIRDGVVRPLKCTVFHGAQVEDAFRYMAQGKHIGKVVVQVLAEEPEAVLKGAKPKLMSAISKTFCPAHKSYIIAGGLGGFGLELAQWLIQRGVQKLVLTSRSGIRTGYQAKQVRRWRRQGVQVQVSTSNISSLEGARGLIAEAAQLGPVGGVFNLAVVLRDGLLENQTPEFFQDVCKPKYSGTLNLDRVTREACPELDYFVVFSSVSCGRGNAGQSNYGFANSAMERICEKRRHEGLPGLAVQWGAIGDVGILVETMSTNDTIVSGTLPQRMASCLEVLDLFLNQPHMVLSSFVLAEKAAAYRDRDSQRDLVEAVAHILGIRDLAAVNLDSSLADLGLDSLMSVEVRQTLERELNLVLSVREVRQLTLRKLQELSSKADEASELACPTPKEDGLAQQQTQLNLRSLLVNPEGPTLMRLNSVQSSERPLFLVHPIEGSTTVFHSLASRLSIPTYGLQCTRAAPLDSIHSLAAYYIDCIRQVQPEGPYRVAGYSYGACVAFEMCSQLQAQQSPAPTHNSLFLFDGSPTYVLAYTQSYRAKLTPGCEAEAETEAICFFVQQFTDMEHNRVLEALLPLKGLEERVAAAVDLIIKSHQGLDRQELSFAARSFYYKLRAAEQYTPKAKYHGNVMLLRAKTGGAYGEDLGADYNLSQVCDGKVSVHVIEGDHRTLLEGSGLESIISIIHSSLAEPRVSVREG

Row | inhibition at 100 µM [%] | SMILES | IC50, inhibition of human Fatty Acid Synthase
1 | 99.8 | COc1cccc(CCNC(=O)Nc2cc(C(=O)N3CCC(c4ccc(C#N)cc4)CC3)ccc2C)c1 [Example 65, 1-[5-[4-(4-cyanophenyl)piperidine-1-carbonyl]-2-methyl-phenyl]-3-[2-(3-methoxyphenyl)ethyl]urea] | 
2 | 96 | Cc1ccc(C(=O)N2CCC(c3ccc(C(F)(F)F)cc3)CC2)cc1NC(=O)NCCNS(=O)(=O)N(C)C [Example 340, 3-[2-(dimethylsulfamoylamino)ethyl]-1-[2-methyl-5-[4-[4-(trifluoromethyl)phenyl]piperidine-1-carbonyl]phenyl]urea] | 
3 | 87.9 | COC[C@@H](CO)NC(=O)Nc1cc(C(=O)N2CCC(c3ccc(C#N)cc3)CC2)ccc1C [Example 198, 1-[5-[4-(4-cyanophenyl)piperidine-1-carbonyl]-2-methyl-phenyl]-3-[(2R)-1-hydroxy-3-methoxy-propan-2-yl]urea] | 
4 | 94.9 | Cc1ccc(C(=O)N2CCC(c3ccc(C#N)cc3)CC2)cc1NC(=O)N[C@@H]1CCCC[C@@H]1NS(=O)(=O)N(C)C (relative stereo) [Example 317, 1-[5-[4-(4-cyanophenyl)piperidine-1-carbonyl]-2-methyl-phenyl]-3-[(cis)-2-(dimethylsulfamoylamino)cyclohexyl]urea] | 
5 | 81.2 | Cc1ccc(C(=O)N2CCC(c3ccc(C#N)cc3)CC2)cc1NC(=O)NC1CCCCNC1=O (stereo not drawn) [Example 133, 1-[5-[4-(4-cyanophenyl)piperidine-1-carbonyl]-2-methyl-phenyl]-3-(2-oxoazepan-3-yl)urea] | 
6 | 93.9 | CCS(=O)(=O)N(C)CCNC(=O)Nc1cc(C(=O)N2CCC(c3ccc(C#N)cc3)CC2)ccc1C [Example 272, 3-[5-[4-(4-cyanophenyl)piperidine-1-carbonyl]-2-methyl-phenyl]-1-[2-(ethylsulfonyl-methyl-amino)ethyl]urea] | 
7 | 71.6 | Cc1ccc(C(=O)N2CCC(c3ccc(C#N)cc3)CC2)cc1NC(=O)N(CCO)C(C)C [Example 395, 3-[5-[4-(4-cyanophenyl)piperidine-1-carbonyl]-2-methylphenyl]-1-(2-hydroxyethyl)-1-propan-2-ylurea] | 
8 | 80.7 | Cc1ccc(NC(=O)NCC2CCOCC2)cc1C(=O)N1CCC(c2ccc(C#N)cc2)CC1 [Example 27, 1-[3-[4-(4-cyanophenyl)piperidine-1-carbonyl]-4-methyl-phenyl]-3-(oxan-4-ylmethyl)urea] | 
9 | 78.4 | CCC(=O)NCCN(C)C(=O)Nc1cc(C(=O)N2CCC(c3ccc(C#N)cc3)CC2)ccc1C [Example 353, N-[2-[[5-[4-(4-cyanophenyl)piperidine-1-carbonyl]-2-methyl-phenyl]carbamoyl-methyl-amino]ethyl]propanamide] | 
10 | 65.7 | CC(=O)NCCN(C)C(=O)Nc1cc(C(=O)N2CCC(c3ccc(C#N)cc3)CC2)ccc1C [Example 401, N-[2-[[5-[4-(4-cyanophenyl)piperidine-1-carbonyl]-2-methylphenyl]carbamoyl-methylamino]ethyl]acetamide] | 
11 | 88.9 | Cc1ccc(C(=O)N2CCC(c3ccc(F)cc3)CC2)cc1NC(=O)NCCN(C)S(C)(=O)=O [Example 351, 1-[5-[4-(4-fluorophenyl)piperidine-1-carbonyl]-2-methyl-phenyl]-3-[2-(methyl-methylsulfonyl-amino)ethyl]urea] | 
12 | 79 | Cc1ccc(C(=O)N2CCC(c3ccc(C#N)cc3)CC2)cc1NC(=O)NC(C(=O)O)C(C)C (stereo not drawn) [Example 371, 2-[[5-[4-(4-cyanophenyl)piperidine-1-carbonyl]-2-methylphenyl]carbamoylamino]-3-methylbutanoic acid] | 
13 | 101 | CNC(=O)Nc1cc(C(=O)N2CCC(c3ccc(C#N)cc3)CC2)ccc1C [Example 361, 1-[5-[4-(4-cyanophenyl)piperidine-1-carbonyl]-2-methyl-phenyl]-3-methyl-urea] | 
14 | 81.7 | Cc1ccc(C(=O)N2CCC(c3ccc(C#N)cc3)CC2)cc1NC(=O)NCC(O)CO (stereo not drawn) [Example 184, 1-[5-[4-(4-cyanophenyl)piperidine-1-carbonyl]-2-methyl-phenyl]-3-(2,3-dihydroxypropyl)urea] | 
15 | 95.1 | Cc1ccc(C(=O)N2CCC(c3ccc(C#N)cc3)CC2)cc1NC(=O)NC1COC1 [Example 299, 1-[5-[4-(4-cyanophenyl)piperidine-1-carbonyl]-2-methyl-phenyl]-3-(oxetan-3-yl)urea] | 
16 |  | COC(=O)[C@H](Cc1cn(C)cn1)NC(=O)Nc1cc(C(=O)N2CCC(c3ccc(C#N)cc3)CC2)ccc1C [Methyl (2S)-2-[[5-[4-(4-cyanophenyl)piperidine-1-carbonyl]-2-methylphenyl]carbamoylamino]-3-(1-methylimidazol-4-yl)propanoate] | do not have IC50s in the range of about 0.001 μM to about 30 μM
17 | 89.6 | Cc1ccc(C(=O)N2CCC(c3ccc(C#N)cc3)CC2)cc1NC(=O)NCCCN1CCCC1 [Example 74, 1-[5-[4-(4-cyanophenyl)piperidine-1-carbonyl]-2-methyl-phenyl]-3-(3-pyrrolidin-1-ylpropyl)urea] | 

Row | inhibition at 100 µM [%] | SMILES | IC50, inhibition of human Fatty Acid Synthase
18 | 101 | Cc1ccc(C(=O)N2CCC(c3ccc(C#N)cc3)CC2)cc1NC(=O)NCc1cccc(S(C)(=O)=O)c1 [Example 247, 1-[5-[4-(4-cyanophenyl)piperidine-1-carbonyl]-2-methyl-phenyl]-3-[(3-methylsulfonylphenyl)methyl]urea] | 
19 | 89.7 | Cc1ccc(C(=O)N2CCC(c3ccc(C#N)cc3)CC2)cc1NC(=O)NCCCN1CCOCC1 [Example 146, 1-[5-[4-(4-cyanophenyl)piperidine-1-carbonyl]-2-methyl-phenyl]-3-(3-morpholin-4-ylpropyl)urea] | 
20 | 90.5 | Cc1ccc(C(=O)N2CCC(c3ccc(C#N)cc3)CC2)cc1NC(=O)NCCC(=O)N(C)C [Example 130, 3-[[5-[4-(4-cyanophenyl)piperidine-1-carbonyl]-2-methyl-phenyl]carbamoylamino]-N,N-dimethyl-propanamide] | 
21 | 94.8 | COC(=O)[C@H](CNC(=O)Nc1cc(C(=O)N2CCC(c3ccc(C#N)cc3)CC2)ccc1C)NC(=O)OC(C)(C)C [Example 177, Methyl (2S)-3-[[5-[4-(4-cyanophenyl)piperidine-1-carbonyl]-2-methyl-phenyl]carbamoylamino]-2-[(2-methylpropan-2-yl)oxycarbonylamino]propanoate] | 
22 | 79.2 | CCCCNC(=O)Nc1ccc(C)c(C(=O)N2CCC(c3ccc(C#N)cc3)CC2)c1 [Example 20, 1-butyl-3-[3-[4-(4-cyanophenyl)piperidine-1-carbonyl]-4-methyl-phenyl]urea] | 
23 | 79.5 | COCCN1CCC(NC(=O)Nc2cc(C(=O)N3CCC(c4ccc(C#N)cc4)CC3)ccc2C)CC1 [Example 147, 1-[5-[4-(4-cyanophenyl)piperidine-1-carbonyl]-2-methyl-phenyl]-3-[1-(2-methoxyethyl)-4-piperidyl]urea] | 
24 |  | Cc1ccc(C(=O)N2CCC(c3ccc(C#N)cc3)CC2)cc1NC(=O)N(C1CC1)C1CCS(=O)(=O)C1 (stereo not drawn) [3-[5-[4-(4-cyanophenyl)piperidine-1-carbonyl]-2-methylphenyl]-1-cyclopropyl-1-(1,1-dioxothiolan-3-yl)urea] | do not have IC50s in the range of about 0.001 μM to about 30 μM
25 |  | COC(=O)C(Cc1ccc(F)cc1)NC(=O)Nc1cc(C(=O)N2CCC(c3ccc(C#N)cc3)CC2)ccc1C (stereo not drawn) [Methyl 2-[[5-[4-(4-cyanophenyl)piperidine-1-carbonyl]-2-methylphenyl]carbamoylamino]-3-(4-fluorophenyl)propanoate] | do not have IC50s in the range of about 0.001 μM to about 30 μM
26 | 90.1 | Cc1ccc(C(=O)N2CCC(c3ccc(C#N)cc3)CC2)cc1NC(=O)NC(C)(C)CNC(=O)c1cccnc1 [Example 93, N-[2-[[5-[4-(4-cyanophenyl)piperidine-1-carbonyl]-2-methyl-phenyl]carbamoylamino]-2-methyl-propyl]pyridine-3-carboxamide] | 
27 | 104 | Cc1ccc(C(=O)N2CCC(c3ccc(C#N)cc3)CC2)cc1NC(=O)NCCN1CCC(F)(F)C1 [Example 254, 1-[5-[4-(4-cyanophenyl)piperidine-1-carbonyl]-2-methyl-phenyl]-3-[2-(3,3-difluoropyrrolidin-1-yl)ethyl]urea] | 
28 | 84.4 | Cc1ccc(C(=O)N2CCC(c3ccc(C#N)cc3)CC2)cc1NC(=O)N[C@@H]1CCN(S(C)(=O)=O)C1 [Example 218, 1-[5-[4-(4-cyanophenyl)piperidine-1-carbonyl]-2-methyl-phenyl]-3-[(3R)-1-methylsulfonylpyrrolidin-3-yl]urea] | 
29 | 95 | CC(=O)N1CCC(NC(=O)Nc2cc(C(=O)N3CCC(c4ccc(C#N)cc4)CC3)ccc2C)CC1 [Example 282, 3-(1-acetyl-4-piperidyl)-1-[5-[4-(4-cyanophenyl)piperidine-1-carbonyl]-2-methyl-phenyl]urea] | 
30 | 98.7 | Cc1ccc(C(=O)N2CCC(c3ccc(C#N)cc3)CC2)cc1NC(=O)NC1CCC(N(C)C)CC1 (stereo not drawn) [Example 256, 1-[5-[4-(4-cyanophenyl)piperidine-1-carbonyl]-2-methyl-phenyl]-3-(4-dimethylaminocyclohexyl)urea] | 
31 | 90.5 | Cc1ccc(C(=O)N2CCC(c3ccc(C#N)cc3)CC2)cc1NC(=O)N1CC(NS(C)(=O)=O)C1 [Example 313, N-[5-[4-(4-cyanophenyl)piperidine-1-carbonyl]-2-methyl-phenyl]-3-methanesulfonamido-azetidine-1-carboxamide] | 
32 | 78.2 | Cc1ccc(NC(=O)NC2CC2)cc1C(=O)N1CCC(c2ccc(C#N)cc2)CC1 [Example 415, 1-[3-[4-(4-cyanophenyl)piperidine-1-carbonyl]-4-methylphenyl]-3-cyclopropylurea] | 
33 | 92.6 | Cc1ccc(C(=O)N2CCC(c3ccc(C#N)cc3)CC2)cc1NC(=O)NCCCCO [Example 185, 1-[5-[4-(4-cyanophenyl)piperidine-1-carbonyl]-2-methyl-phenyl]-3-(4-hydroxybutyl)urea] | 
